Tested on: PC-3
Test: Inhibition of cell migration in human PC-3 cells at 5 to 10 uM by wound scratch assay
Assay type: functional, cell-based
Conditions: dose 5-10 µM, time <= 24.0 hrs, TDE = time-dependent effect

CN1CCN(CCNC(=O)c2cc(-c3ccc4ccccc4c3)nc3c2cnn3-c2ccccc2)CC1
inhibition: Tde
